Tests used:
TRESK = target: T1, TRESK (Homo sapiens, UniProt Q7Z418); experiment: QA ion block of TRESK currents, giant inside-out patches from Xenopus oocytes; type: cell-based
T1 sequence (Q7Z418 1-384): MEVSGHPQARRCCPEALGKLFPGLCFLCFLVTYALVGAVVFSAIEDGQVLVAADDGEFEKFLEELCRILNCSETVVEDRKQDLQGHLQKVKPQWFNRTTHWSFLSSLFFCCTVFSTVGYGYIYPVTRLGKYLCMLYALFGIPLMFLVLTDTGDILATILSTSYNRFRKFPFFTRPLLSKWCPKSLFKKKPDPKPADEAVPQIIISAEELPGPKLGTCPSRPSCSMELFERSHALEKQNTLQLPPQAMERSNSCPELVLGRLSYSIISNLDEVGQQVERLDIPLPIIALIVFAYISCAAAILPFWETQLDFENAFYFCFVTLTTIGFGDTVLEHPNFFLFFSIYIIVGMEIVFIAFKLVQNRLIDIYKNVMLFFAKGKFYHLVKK

TREK-1 = target: T2, TREK-1 (Rattus norvegicus, UniProt Q920B6); type: cell-based
T2 sequence (Q920B6 1-426): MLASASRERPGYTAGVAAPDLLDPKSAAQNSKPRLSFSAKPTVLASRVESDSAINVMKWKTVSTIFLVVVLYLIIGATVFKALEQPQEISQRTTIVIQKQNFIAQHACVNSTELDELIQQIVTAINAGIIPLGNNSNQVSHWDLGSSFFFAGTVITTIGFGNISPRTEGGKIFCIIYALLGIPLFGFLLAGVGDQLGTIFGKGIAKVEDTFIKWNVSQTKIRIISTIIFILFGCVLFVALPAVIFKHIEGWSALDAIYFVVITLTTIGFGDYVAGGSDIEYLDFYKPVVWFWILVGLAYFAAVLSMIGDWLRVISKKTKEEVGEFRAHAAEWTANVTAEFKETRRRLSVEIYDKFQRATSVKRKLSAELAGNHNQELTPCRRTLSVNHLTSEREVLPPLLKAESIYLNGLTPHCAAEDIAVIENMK

Compound | IC50 (TRESK) [µM] | recovery from inhibition (kinetics) (TRESK; TRESK, 5 μM, −80 mV) | inhibition at 5000 µM (TREK-1; read-out: inhibition of TREK-1 current) [%] | IC50 (TREK-1) [µM]
CCCC[N+](CCCC)(CCCC)CCCC [TButA, Tetrabutylammonium bromide] | 7 ± 1 | fairly rapid | 60 | –
CC[N+](CC)(CC)CC [TEA, Tetraethylammonium chloride] | 800 ± 100 | – | – | ~60000
